Results published in US12411128B2, “Methods and apparatuses for prediction of mechanism of activity of compounds” (The Regents of the University of California, priority 2017, dated 2025).

What was measured:
[1] = system: human ventricular cardiac tissue strips (hvCTS); assay: individual contractile force parameters of electrically paced hvCTS; conditions: for change of duration of relaxation phase / change of max force: increasing concentration up to 10^−4 M (100 μM)
From the text: Each of the compounds, with the exception of aspirin, belonged to one of five classes with each class comprising a minimum of two compounds. Aspirin functioned as a reference for a cardiac-neutral compound. […] The parameters include: • 1. Desired pacing frequency. • 2. Captured pacing frequency. • 3. Max force generated (amplitude). • 4. […] Max change of force over time ([…]F/[…]t) of contraction phase. • 9. Max change of force over time ([…]F/[…]t) of relaxation phase. • 10. Duration of rise from 50% cutoff to max force. • 11. Duration of decline from max force to 50% cutoff. • 12. Area under the curve of rise from 50% cutoff to max force. • 13. Area under the curve of decline from max force to 50% cutoff. • 14. […] Area under the curve of rise from 50% cutoff to max force. • 17. Area under the curve of decline from max force to 50% cutoff.
The cell-matrix solution (100 uL per tissue strip) was injected into a custom PDMS force-sensing bioreactor device and placed in an incubator (37° C. and 5% CO2). Formed hvCTSs were fed DMEM with 10% new born calf serum, 1% penicillin-streptomycin and 0.1% amphotericin B. The PDMS device contains two flexible vertical end-posts to which the tissue anchors, causing the posts to deflect as the tissue beats. Contractile force measurements were captured with a high speed (100 fps) CCD camera while custom LabVIEW software tracked the centroid movement of the flexible post tips. […] A custom MATLAB script was used to calculate 17 parameters that described the overall shape of the force traces for each contractile event (FIG. 1). Each contraction was regarded as an individual data point for the machine learning analysis.
After 7-8 days post tissue formation, hvCTS were exposed to drugs for pharmacodynamic analysis. Flecainide, lisinopril, norepinephrine and ramipril were provided by Pfizer, while all other compounds were purchased form Sigma-Aldrich. Compounds were initially resuspended in DMSO and subsequently diluted in water for final concentrations composed of less than 0.1% (vol/vol) DMSO. The PDMS device containing the hvCTS was placed onto a heated stage (37° C.) under a dissecting microscope. Before either vehicle or drug addition, the media was replaced with DMEM containing high glucose (4.5 g/L) and HEPES without phenol red. Drug doses were added to a tissue in consecutively increasing manner up to 10 concentrations with 3 minutes in between measurements. Vehicle doses containing only water were applied similarly. A pulse stimulator (AMPI Master-9) connected to platinum wires electrically paced the hvCTS with a monophasic electric field of 5 V/cm with a 10 ms pulse duration.
SVM accuracies of strips exposed to a drug condition were compared to those of the non-cardioactive benchmark by using Student's t-test (desired a value of 0.05) with a Bonferroni correction (m, number of tests or hypotheses, was dependent on the number of drug additions in a screen). […] The Bonferroni correction was also applied when examining changes in specific parameters.

[2] = system: human ventricular cardiac tissue strips (hvCTS); assay: binary SVM cardioactivity index from hvCTS twitch force readouts; type: cell-based; conditions: for cardioactivity versus vehicle-treated hvCTS by binary SVM accuracy: over tested concentration range, Student's t-test with Bonferroni correction
Protocol: The binary SVM is capable of summarizing all parameters and providing a simple metric that expresses a compound's degree of cardioactivity at a given dosage (Lee et al., 2015). […] As a result, a SVM accuracy metric is calculated to reflect the machine's ability to identify a cardioactive effect (e.g. 75% accuracy means that out of 100 data points, the machine could correctly classify 75 of them). To account for variations within the data set, multiple runs are performed to calculate the mean SVM accuracy. […] Prominent cardioactive effects allow the space between the data from treated and control conditions to become more distinguishable, leading to a higher SVM accuracy with 100% being the maximum.
Although the hvCTSs (FIG. 3, A) were examined under temperature-controlled conditions, there was an observable drift in contractile behavior of the vehicle-treated hvCTSs. For example, the relative measured maximum developed force increased for all pacing frequencies by a cumulative average of 16.96±0.83% upon the ninth serial addition (FIG. 3, B). To account and normalize for baseline drift, each drug condition was compared to its respective vehicle condition via binary SVM (e.g., measurements of the 7th serial drug addition were compared to those of vehicle-treated hvCTSs at the 7th serial addition). To establish a benchmark of non-cardioactivity, a subset of the vehicle-treated hvCTSs were randomly selected to model a non-cardioactive compound. Binary SVM was then performed between the subset and a corresponding control group of equal size (n).
Human ventricular cardiomyocytes were differentiated from a hES2 stem cell line with a Wnt inhibitor-based protocol as previously described (Weng et al., 2014). Human ventricular cardiac tissue strips (hvCTS) were then formed by mixing cardiomyocytes (100 k cells per strip) at 14-16 days post differentiation with a solution of bovine collagen I (2 mg/mL), Matrigel (0.9 mg/mL), and human foreskin fibroblasts (100 k cells per strip) as previously described (Turnbull et al., 2014). The cell-matrix solution (100 uL per tissue strip) was injected into a custom PDMS force-sensing bioreactor device and placed in an incubator (37° C. and 5% CO2). Formed hvCTSs were fed DMEM with 10% new born calf serum, 1% penicillin-streptomycin and 0.1% amphotericin B. The PDMS device contains two flexible vertical end-posts to which the tissue anchors, causing the posts to deflect as the tissue beats. Contractile force measurements were captured with a high speed (100 fps) CCD camera while custom LabVIEW software tracked the centroid movement of the flexible post tips. Force was converted from the deflection of the PDMS posts by an elastic beam bending equation (Serrao et al., 2012). […]

[3] = system: human ventricular cardiac tissue strips (hvCTS); assay: class relationship metrics: binary SVM with Gaussian fit between 'unknown' and library compound; type: cell-based; conditions: for Estimated Similar Concentration of digoxin: ouabain at 1.0 × 10^−5 M
Protocol: Once the drug classes were predicted, the concentrations of library compounds that induced the most similar cardioactive effects as the ‘unknown’ compounds were computed (FIG. 7; protocol in Example 5).
The concentration of a library compound that induced the most similar cardioactive effects as the compound of interest was determined. This class relationship metric was computed by first selecting the compound of interest at a desired concentration and performing a series of binary SVM among the tested range of a library compound. For each concentration of the library compound, the closer the SVM accuracy was to 50%, the more defined boundaries of the compounds overlapped and the more similar the cardioactive effects were. This relationship between SVM accuracy and tested concentration range was presumed to behave in a Gaussian manner with the centroid representing the concentration that would elicit the most similar effects. The Gaussian fit was set with 50% as the lower limit and the highest achieved SVM accuracy as the upper limit. If the original SVM accuracies reached the 50% mark and remained around this value for subsequent concentrations, only the first concentration to reach the 50% was included in the fit to accurately model one side of the Gaussian curve.

SMILES: C[C@H]1O[C@@H](O[C@H]2[C@@H](O)C[C@H](O[C@H]3[C@@H](O)C[C@H](O[C@H]4CC[C@@]5(C)[C@H](CC[C@@H]6[C@@H]5C[C@@H](O)[C@]5(C)[C@@H](C7=CC(=O)OC7)CC[C@]65O)C4)O[C@@H]3C)O[C@@H]2C)C[C@H](O)[C@@H]1O [Digoxin]
- change of duration of relaxation phase ([1]; paced at 0.5 Hz): increase in duration of relaxation phase
- change of max force ([1]; paced at 0.5 Hz): decrease in max force

SMILES: NCCCC[C@H](N[C@@H](CCc1ccccc1)C(=O)O)C(=O)N1CCC[C@H]1C(=O)O [Lisinopril]
- cardioactivity versus vehicle-treated hvCTS by binary SVM accuracy [2]: did not have detectable cardioactive effects

SMILES: COc1cc(N)c(Cl)cc1C(=O)NC1CCN(CCCOc2ccc(F)cc2)CC1OC (stereo not shown) [Cisapride]
- Estimated Similar Concentration of flecainide ([3]; cisapride at 1.0 × 10^−4 M, centroid of Gaussian fit): Flecainide (1.03 × 10^−5) M
- change of duration of relaxation phase ([1]; paced at 0.5 Hz): increased
- change of max force ([1]; paced at 0.5 Hz): decreased

SMILES: CC(C)NCC(O)c1ccc(O)c(O)c1 (stereo not shown) [Isoproterenol]
- decrease of duration of the relaxation phase (time from maximum developed force to 95% cutoff) ([1]; 10 μM): 22.19±19.35%
- increase in maximum developed force ([1]; 10 μM, paced at 0.5 Hz): 10.42±16.23%
- duration of the relaxation phase versus the vehicle study (lusitropic effect) ([1]; paced at 0.5 Hz, 3.0×10^−7 to 10^−5 M, n=10): decreased significantly
- inotropic effect ([1]; paced hvCTS (nifedipine 1 Hz; isoproterenol 10 μM, 0.5 Hz)): negligible inotropic effects

SMILES: COCC(=O)O[C@]1(CCN(C)CCCc2nc3ccccc3[nH]2)CCc2cc(F)ccc2[C@@H]1C(C)C [Mibefradil]
- Estimated Similar Concentration of nifedipine ([3]; mibefradil at 3.0 × 10^−6 M, centroid of Gaussian fit): Nifedipine (1.28 × 10^−7) M

SMILES: C[C@@H]1O[C@@H](O[C@H]2C[C@@H](O)[C@]3(CO)[C@H]4[C@H](O)C[C@]5(C)[C@@H](C6=CC(=O)OC6)CC[C@]5(O)[C@@H]4CC[C@]3(O)C2)[C@H](O)[C@H](O)[C@H]1O [Ouabain]
- fold lower concentration than digoxin to achieve the same level of cardioactivity ([3]; ouabain 1.0×10^−5 M vs digoxin 5.35×10^−5 M): approximately 5 fold
- Estimated Similar Concentration of digoxin ([3]; centroid of Gaussian fit): Digoxin (5.35 × 10^−5) M
- Estimated Similar Concentration of digoxin ([3]; centroid of Gaussian fit, listed as ouabain): 53.5 µM
- treated strips that stopped beating at all pacing frequencies ([1]; 100 μM): 4 of the 10

SMILES: CCOC(=O)[C@H](CCc1ccccc1)N[C@@H](C)C(=O)N1[C@H](C(=O)O)C[C@@H]2CCC[C@@H]21 [Ramipril]
- cardioactivity versus vehicle-treated hvCTS by binary SVM accuracy [2]: did not have detectable cardioactive effects

SMILES: CC(=O)Oc1ccccc1C(=O)O [Aspirin]
- SVM accuracy, average among all serial additions ([2]; binary SVM vs vehicle-treated hvCTS, 10 nM to 100 μM, n=6): 52.85±1.77%
- cardioactivity versus vehicle-treated hvCTS by binary SVM accuracy [2]: non-cardioactivity

SMILES: NC[C@H](O)c1ccc(O)c(O)c1 [Norepinephrine]
- Estimated Similar Concentration of isoproterenol ([3]; norepinephrine at 1.0 × 10^−5 M, centroid of Gaussian fit): (1.44 × 10^−6) M
